Experimental data from PubChem BioAssay (NCI).
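48-hour exposure; five concentrations; linearly interpolated endpoints. Abbreviation: GI50, concentration required for 50% inhibition of growth. TGI is the concentration that stops growth completely.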

How the values were obtained:
Assay in all cases: growth of human tumour cells (NCI), 48 h
T-47D breast = system: T-47D breast
HOP-62 NSCLC = system: HOP-62 NSCLC
OVCAR-3 ovarian = system: OVCAR-3 ovarian
OVCAR-4 ovarian = system: OVCAR-4 ovarian
U251 CNS = system: U251 CNS
MDA-MB-435 = system: MDA-MB-435
NCI/ADR-RES ovarian = system: NCI/ADR-RES ovarian
SK-OV-3 ovarian = system: SK-OV-3 ovarian
BT-549 breast = system: BT-549 breast
NCI-H522 lung = system: NCI-H522 lung
SN12C renal = system: SN12C renal
HCC-2998 colon = system: HCC-2998 colon
LOX IMVI melanoma = system: LOX IMVI melanoma
TK-10 renal = system: TK-10 renal
SW-620 colon = system: SW-620 colon
UACC-62 melanoma = system: UACC-62 melanoma
M14 melanoma = system: M14 melanoma
EKVX NSCLC = system: EKVX NSCLC
ACHN renal = system: ACHN renal
SR leukemia = system: SR leukemia
786-0 renal = system: 786-0 renal
DU-145 prostate = system: DU-145 prostate
RXF 393 renal = system: RXF 393 renal
CAKI-1 renal = system: CAKI-1 renal
UACC-257 melanoma = system: UACC-257 melanoma
SF-539 CNS = system: SF-539 CNS
UO-31 renal = system: UO-31 renal
SK-MEL-28 melanoma = system: SK-MEL-28 melanoma
OVCAR-8 ovarian = system: OVCAR-8 ovarian

C/C(=N\Nc1cccc(Cl)n1)c1ccccn1 was tested, and the GI50 (T-47D breast) was 1090 nM, the TGI (T-47D breast) was 13.1 µM and the GI50 (HOP-62 NSCLC) was 456 nM. The TGI (HOP-62 NSCLC) was 16.9 µM, the GI50 (OVCAR-3 ovarian) was 379 nM and the TGI (OVCAR-3 ovarian) was 13.3 µM. The GI50 (OVCAR-4 ovarian) was 439 nM, the TGI (OVCAR-4 ovarian) was over 54.7 µM and the GI50 (U251 CNS) was 582 nM. The TGI (U251 CNS) was over 100 µM, the GI50 (MDA-MB-435) was 1780 nM and the TGI (MDA-MB-435) was over 100 µM. It also gave a GI50 (NCI/ADR-RES ovarian) of 441 nM, a TGI (NCI/ADR-RES ovarian) of 12.8 µM and a GI50 (SK-OV-3 ovarian) of 1080 nM. It also gave a TGI (SK-OV-3 ovarian) of over 43.2 µM, a GI50 (BT-549 breast) of 1400 nM and a TGI (BT-549 breast) of over 71.8 µM. For the same compound, the GI50 (NCI-H522 lung) was 508 nM, the TGI (NCI-H522 lung) was over 40.3 µM and the GI50 (SN12C renal) was 598 nM. The TGI (SN12C renal) was over 100 µM, the GI50 (HCC-2998 colon) was 750 nM and the TGI (HCC-2998 colon) was over 100 µM. For the same compound, the GI50 (LOX IMVI melanoma) was 492 nM, the TGI (LOX IMVI melanoma) was over 25 µM and the GI50 (TK-10 renal) was 700 nM. It also gave a TGI (TK-10 renal) of over 100 µM, a GI50 (SW-620 colon) of 614 nM and a TGI (SW-620 colon) of over 100 µM. The GI50 (UACC-62 melanoma) was 1220 nM, the TGI (UACC-62 melanoma) was 4.93 µM and the GI50 (M14 melanoma) was 737 nM. For the same compound, the TGI (M14 melanoma) was 14.3 µM, the GI50 (EKVX NSCLC) was 411 nM and the TGI (EKVX NSCLC) was 18.6 µM. The GI50 (ACHN renal) was 556 nM, the TGI (ACHN renal) was 18.4 µM and the GI50 (SR leukemia) was 421 nM. The TGI (SR leukemia) was over 44.2 µM, the GI50 (786-0 renal) was 671 nM and the TGI (786-0 renal) was 17.5 µM. For the same compound, the GI50 (DU-145 prostate) was 692 nM, the TGI (DU-145 prostate) was over 100 µM and the GI50 (RXF 393 renal) was 982 nM. It also gave a TGI (RXF 393 renal) of 16.1 µM, a GI50 (CAKI-1 renal) of 437 nM and a TGI (CAKI-1 renal) of 7.31 µM. The GI50 (UACC-257 melanoma) was 2270 nM, the TGI (UACC-257 melanoma) was 7.51 µM and the GI50 (SF-539 CNS) was 578 nM. For the same compound, the TGI (SF-539 CNS) was 4.53 µM, the GI50 (UO-31 renal) was 466 nM and the TGI (UO-31 renal) was 4.33 µM. The GI50 (SK-MEL-28 melanoma) was 1650 nM, the TGI (SK-MEL-28 melanoma) was over 100 µM and the GI50 (OVCAR-8 ovarian) was 510 nM. For the same compound, the TGI (OVCAR-8 ovarian) was over 100 µM.
